Assay results: patent US20260027221A1, “Targeted Pyrrolobenzodiazapine Conjugates” (BeOne Medicines I GmbH, priority 2023, published 2026)

Columns and labels:
A375 cells = test: Compounds cellular killing in A375 cancer line (Cell Titer-Glo, 6 days); assay type: cell-based, human; conditions: Homo sapiens, A-375, 144 h, 6 days incubation, cell viability by Cell Titer-Glo
Method: (§1) A375 (ATCC, CRL-1619). […] The base medium for A375 is DMEM, high glucose, GlutaMAX™ Supplement (Gibco, 10566024). To make the complete growth medium, fetal bovine serum was added to the base mediumat a final concentration of 10% (Gibco, 10099-141C). The cell line was grown in a humidified 5% CO2 atmosphere at 37° C., and was regularly tested for the presence of mycoplasma with MycoAlert™ PLUS Mycoplasma Detection Kit (Lonza, LT07-710).
(§2) Payload direct killing by compounds 1-1 to 1-22 was assessed in A375 and Calu-6 cancer cell lines. Cells were seeded at 1E3/well (A375) 2E3/well (Calu-6) into 96-well plates (Greiner: 655090), 100 μL/well, and incubated at 37° C., 5% CO2, overnight. Fresh growth medium was added containing varying concentrations of compounds, 50 μL/well, and incubated at 37° C., 5% CO2, for 6 days. The cell viability detected by Cell Titer-Glo (Promega, G7573), 70 μL/well. The plates were allowed to incubate at room temperature for 10 minutes to stabilize the luminescent signal. The plates were analyzed with a microplate reader.

Calu-6 cells = test: Compounds cellular killing in Calu-6 cancer line (Cell Titer-Glo, 6 days); assay type: cell-based, human; conditions: Homo sapiens, Calu-6, 144 h, 6 days incubation, cell viability by Cell Titer-Glo
Method: as §1, with “Calu-6” for “A375”, “HTB-56).” for “CRL-1619).”, “Eagle's Minimum Essential Medium (ATCC, 30-2003).” for “DMEM, high glucose, GlutaMAX™ Supplement (Gibco, 10566024).”
as §2

SMILES | EC50 (A375 cells) | Emax (A375 cells) | EC50 (Calu-6 cells) | Emax (Calu-6 cells)
COc1cc2c(cc1OCCCCCOc1cc3c(cc1OC)C(=O)N1CC4(CC4)C[C@H]1C=N3)N=C[C@@H]1Cc3ccccc3CN1C2=O [Compound 1-1, (S)-2-methoxy-3-((5-(((S)-7-methoxy-5-oxo-5,11a-dihydro-1H,3H-spiro[benzo[e]pyrrolo[1,2-a][1,4]diazepine-2,1′-cyclopropan]-8-yl)oxy)pentyl)oxy)-7,12-dihydrobenzo[5,6][1,4]diazepino[1,2-b]isoquinolin-14(6aH)-one] | 5 pM | 99.8% | 2 pM | 99.5%
COc1cc2c(cc1OCCCCCOc1cc3c(cc1OC)C(=O)N1Cc4ccccc4C[C@H]1CN3)N=C[C@@H]1CC3(CC3)CN1C2=O [Compound 1-2, (S)-2-methoxy-3-((5-(((S)-7-methoxy-5-oxo-5,11a-dihydro-1H,3H-spiro[benzo[e]pyrrolo[1,2-a][1,4]diazepine-2,1′-cyclopropan]-8-yl)oxy)pentyl)oxy)-6,6a,7,12-tetrahydrobenzo[5,6][1,4]diazepino[1,2-b]isoquinolin-14(5H)-one] | 118 pM | 98% | 52 pM | 97.6%
COc1cc2c(cc1OCCCCCOc1cc3c(cc1OC)C(=O)N1CC4(CC4)C[C@H]1CN3)N=C[C@@H]1Cc3ccccc3CN1C2=O [Compound 1-3, (S)-2-methoxy-3-((5-(((S)-7-methoxy-5-oxo-5,10,11,11a-tetrahydro-1H,3H-spiro[benzo[e]pyrrolo[1,2-a][1,4]diazepine-2,1′-cyclopropan]-8-yl)oxy)pentyl)oxy)-7,12-dihydrobenzo[5,6][1,4]diazepino[1,2-b]isoquinolin-14(6aH)-one] | 2 pM | 99.9% | 1 pM | 99.3%
COc1cc2c(cc1OCCCCCOc1cc3c(cc1OC)C(=O)N1CC4(CC4)C[C@H]1CN3)NC[C@@H]1Cc3ccccc3CN1C2=O [Compound 1-4, (S)-2-methoxy-3-((5-(((S)-7-methoxy-5-oxo-5,10,11,11a-tetrahydro-1H,3H-spiro[benzo[e]pyrrolo[1,2-a][1,4]diazepine-2,1′-cyclopropan]-8-yl)oxy)pentyl)oxy)-6,6a,7,12-tetrahydrobenzo[5,6][1,4]diazepino[1,2-b]isoquinolin-14(5H)-one] | 140 pM | 90.6% | 77 pM | 94.9%
COc1cc2c(cc1OCCOCCOc1cc3c(cc1OC)C(=O)N1CC4(CC4)C[C@H]1C=N3)N=C[C@@H]1Cc3ccccc3CN1C2=O [Compound 1-5, (S)-2-methoxy-3-(2-(2-(((S)-7-methoxy-5-oxo-5,11a-dihydro-1H,3H-spiro[benzo[e]pyrrolo[1,2-a][1,4]diazepine-2,1′-cyclopropan]-8-yl)oxy)ethoxy)ethoxy)-7,12-dihydrobenzo[5,6][1,4]diazepino[1,2-b]isoquinolin-14(6aH)-one] | > 1000 pM | 39.2% | 165 pM | 90.8%
COc1ccc(C2=CN3C(=O)c4cc(OC)c(OCCCCCOc5cc6c(cc5OC)C(=O)N5CCC7(CC7)C[C@H]5C=N6)cc4NC[C@@H]3C2)cc1 [Compound 1-6, (S)-2-methoxy-3-((5-(((S)-7-methoxy-2-(4-methoxyphenyl)-5-oxo-5,10,11,11a-tetrahydro-1H-benzo[e]pyrrolo[1,2-a][1,4]diazepin-8-yl)oxy)pentyl)oxy)-6a,7,9,10-tetrahydro-12H-spiro[benzo[e]pyrido[1,2-a][1,4]diazepine-8,1′-cyclopropan]-12-one] | 67 pM | 97.5% | 33 pM | 97.6%
C=C1CCN2C(=O)c3cc(OC)c(OCCCCCOc4cc5c(cc4OC)C(=O)N4CC6(CC6)C[C@H]4C=N5)cc3N=C[C@@H]2C1 [Compound 1-7, (S)-7-methoxy-8-((5-(((S)-2-methoxy-8-methylene-12-oxo-6a,7,8,9,10,12-hexahydrobenzo[e]pyrido[1,2-a][1,4]diazepin-3-yl)oxy)pentyl)oxy)-1,11a-dihydro-3H,5H-spiro[benzo[e]pyrrolo[1,2-a][1,4]diazepine-2,1′-cyclopropan]-5-one] | 102 pM | 89% | 17 pM | 97.7%
COc1cc2c(cc1OCc1cccc(COc3cc4c(cc3OC)C(=O)N3CC5(CC5)C[C@H]3C=N4)c1)N=C[C@@H]1CC3(CC3)CN1C2=O [Compound 1-8, (11aS,11a″S)-8,8″-((1,3-phenylenebis(methylene))bis(oxy))bis(7-methoxy-1,11a-dihydro-3H,5H-spiro[benzo[e]pyrrolo[1,2-a][1,4]diazepine-2,1′-cyclopropan]-5-one)] | 29 pM | 99.2% | 5 pM | 98.4%
COc1cc2c(cc1OCc1cccc(COc3cc4c(cc3OC)C(=O)N3CC5(CC5)C[C@H]3CN4)c1)N=C[C@@H]1CC3(CC3)CN1C2=O [Compound 1-9, (S)-7-methoxy-8-((3-((((S)-7-methoxy-5-oxo-5,11a-dihydro-1H,3H-spiro[benzo[e]pyrrolo[1,2-a][1,4]diazepine-2,1′-cyclopropan]-8-yl)oxy)methyl)benzyl)oxy)-1,10,11,11a-tetrahydro-3H,5H-spiro[benzo[e]pyrrolo[1,2-a][1,4]diazepine-2,1′-cyclopropan]-5-one] | 10 pM | 99.9% | 2 pM | 99.7%
COc1cc2c(cc1OCc1cccc(COc3cc4c(cc3OC)C(=O)N3CC5(CC5)C[C@H]3CN4)c1)NC[C@@H]1CC3(CC3)CN1C2=O [Compound 1-10] | > 1000 pM | 42% | 358 pM | 84.7%
COc1cc2c(cc1OCC13CC(COc4cc5c(cc4OC)C(=O)N4CC6(CC6)C[C@H]4C=N5)(C1)C3)N=C[C@@H]1Cc3ccccc3CN1C2=O [Compound 1-11, (S)-2-methoxy-3-((3-((((S)-7-methoxy-5-oxo-5,11a-dihydro-1H,3H-spiro[benzo[e]pyrrolo[1,2-a][1,4]diazepine-2,1′-cyclopropan]-8-yl)oxy)methyl)bicyclo[1.1.1]pentan-1-yl)methoxy)-7,12-dihydrobenzo[5,6][1,4]diazepino[1,2-b]isoquinolin-14(6aH)-one] | 6110 pM | 99.9% | 340 pM | 99.4%
COc1cc2c(cc1OCC13CC(COc4cc5c(cc4OC)C(=O)N4Cc6ccccc6C[C@H]4CN5)(C1)C3)N=C[C@@H]1CC3(CC3)CN1C2=O [Compound 1-12, (S)-2-methoxy-3-((3-((((S)-7-methoxy-5-oxo-5,11a-dihydro-1H,3H-spiro[benzo[e]pyrrolo[1,2-a][1,4]diazepine-2,1′-cyclopropan]-8-yl)oxy)methyl)bicyclo[1.1.1]pentan-1-yl)methoxy)-6,6a,7,12-tetrahydrobenzo[5,6][1,4]diazepino[1,2-b]isoquinolin-14(5H)-one] | 297000 pM | 97.5% | 108000 pM | 99.4%
COc1cc2c(cc1OCCNCCOc1cc3c(cc1OC)C(=O)N1CC4(CC4)C[C@H]1C=N3)N=C[C@@H]1CC3(CC3)CN1C2=O [Compound 1-13, (11aS,11a″S)-8,8″-((azanediylbis(ethane-2,1-diyl))bis(oxy))bis(7-methoxy-1,11a-dihydro-3H,5H-spiro[benzo[e]pyrrolo[1,2-a][1,4]diazepine-2,1′-cyclopropan]-5-one)] | 9120 pM | 100% | 1620 pM | 99.7%
COc1cc2c(cc1OCCCOc1cc3c(cc1OC)C(=O)N1CC4(CC4)C[C@H]1C=N3)N=C[C@@H]1Cc3ccccc3CN1C2=O [Compound 1-14, (S)-2-methoxy-3-(3-(((S)-7-methoxy-5-oxo-5,11a-dihydro-1H,3H-spiro[benzo[e]pyrrolo[1,2-a][1,4]diazepine-2,1′-cyclopropan]-8-yl)oxy)propoxy)-7,12-dihydrobenzo[5,6][1,4]diazepino[1,2-b]isoquinolin-14(6aH)-one] | 33 pM | 98.9% | 10 pM | 99.2%
COc1cc2c(cc1OCCCOc1cc3c(cc1OC)C(=O)N1CC4(CC4)C[C@H]1CN3)N=C[C@@H]1Cc3ccccc3CN1C2=O [Compound 1-15, (S)-2-methoxy-3-(3-(((S)-7-methoxy-5-oxo-5,10,11,11a-tetrahydro-1H,3H-spiro[benzo[e]pyrrolo[1,2-a][1,4]diazepine-2,1′-cyclopropan]-8-yl)oxy)propoxy)-7,12-dihydrobenzo[5,6][1,4]diazepino[1,2-b]isoquinolin-14(6aH)-one] | 134 pM | 99.5% | 45 pM | 99.7%
